Key:
GRP78 [1] = test: GRP78 expression in neuronal cells under endoplasmic reticulum stress (RT-PCR); format: cell-based, Rat; settings: pretreatment 24 h, tunicamycin 1.0 μM 24 h
Description: Neuronal cells were prepared as follows. PC12 cells were reconstituted by seeding at 2×10^6 cells/flask to a collagen IV-coated flask, and precultured for 3 days in the growth medium in a CO2 incubator.
(§1) The lysate was preserved at −80° C. until use.
(§2) The internal standard gene used was GAPDH gene.

GRP78 [2] = test: GRP78 expression in adipocytes under endoplasmic reticulum stress (RT-PCR); format: cell-based, Human; settings: pretreatment 24 h, tunicamycin 0.65 μM 24 h
Description: Adipocytes were prepared as follows. Normal human subcutaneous preadipocytes were reconstituted in a T75 flask using a growth medium (PBM-2 medium, Cat. No. PT-8002, Lonza, supplemented with 10% FBS, 2 mM L-glutamine, 50 μg/mL gentamycin, and 37 ng/mL amphotericin-B), and precultured for 3 days in a CO2 incubator (37° C., 5% CO2; the same holds true for the description below).
as §1, §2

CHOP = CHOP expression in pancreatic cells (βTC6) under endoplasmic reticulum stress (RT-PCR); format: cell-based, Mouse; settings: pretreatment 4 h, tunicamycin 0.16 μM 24 h
Description: as §1, §2

With `C=C1C[C@@]23CC[C@H]4[C@@](C)(CCC[C@@]4(C)C(=O)O)[C@@H]2CC[C@]1(O)C3` [Steviol] the “Expression level of GRP78 in neuronal cells (relative to GAPDH, untreated=1)” value (GRP78 [1]; steviol 6.25 μg/mL) was 23.31, the “Expression level of GRP78 in neuronal cells (relative to GAPDH, untreated=1)” value (GRP78 [1]; steviol 12.5 μg/mL) was 23.00 and the “Expression level of GRP78 in neuronal cells (relative to GAPDH, untreated=1)” value (GRP78 [1]; steviol 25 μg/mL) was 21.84. The “Expression level of GRP78 in neuronal cells (relative to GAPDH, untreated=1)” value (GRP78 [1]; steviol 50 μg/mL) was 20.15, the “Expression level of GRP78 in adipocytes (relative to GAPDH, untreated=1)” value (GRP78 [2]; steviol 6.25 μg/mL) was 4.46 and the “Expression level of GRP78 in adipocytes (relative to GAPDH, untreated=1)” value (GRP78 [2]; steviol 12.5 μg/mL) was 4.18. The “Expression level of GRP78 in adipocytes (relative to GAPDH, untreated=1)” value (GRP78 [2]; steviol 25 μg/mL) was 4.06, the “Expression level of GRP78 in adipocytes (relative to GAPDH, untreated=1)” value (GRP78 [2]; steviol 50 μg/mL) was 3.54 and the “Expression level of CHOP in pancreatic cells (relative to GAPDH, untreated=1)” value (CHOP; steviol 6.25 μg/mL) was 2.56. The “Expression level of CHOP in pancreatic cells (relative to GAPDH, untreated=1)” value (CHOP; steviol 12.5 μg/mL) was 2.46, the “Expression level of CHOP in pancreatic cells (relative to GAPDH, untreated=1)” value (CHOP; steviol 25 μg/mL) was 2.21 and the “Expression level of CHOP in pancreatic cells (relative to GAPDH, untreated=1)” value (CHOP; steviol 50 μg/mL) was 2.25.

From patent US20230064324A1, “NEW USES FOR STEVIOL” (SUNTORY HOLDINGS LIMITED, priority 2019, published 2023)
